The values that follow come from US20250386827A1, “PESTICIDES WITH METAL NANOPARTICLE AND CELLULOSIC NANOMATERIAL COMPLEX” (NDSU Research Foundation, priority 2024, published 2025).

The nature of series [1]: Surface tension of droplet (pendant drop, drop-shape analyzer). The format is physicochemical. Conditions: 100 mg/mL in water. The procedure:
Surface Adhesion Properties. The contact angle (θc) of the complexation solution on the wheat leaf surface and the surface tension at the liquid-vapor interface (γLV) were measured using a KRUSS (Model: DSA1005, Serial: 30009734, Germany) drop-shape analyzer. The wheat leaf was taped on the sample stage to prepare a flat and level surface for the measurement. […] KRUSS software tracked the surface of the droplet with respect to the leaf surface baseline and calculated the contact angle (θC). Surface tension γLv of the droplet (largest droplet formation at syringe nozzle just before dripping from the nozzle) was measured using a KRUSS drop shape analyzer (pendant needle was used, diameter 1.8 mm). The solid-liquid adhesion energy per unit area (δWSLV) of the droplet was calculated using the following Young-Dupré equation (1): […]

For a further series, the system named is wheat leaf surface. The series is described as follows: Contact angle and solid-liquid adhesion energy on wheat leaf surface. In kind it is physicochemical. Conditions: 100 mg/mL. The protocol: Surface Adhesion Properties. The contact angle (θc) of the complexation solution on the wheat leaf surface and the surface tension at the liquid-vapor interface (γLV) were measured using a KRUSS (Model: DSA1005, Serial: 30009734, Germany) drop-shape analyzer. The wheat leaf was taped on the sample stage to prepare a flat and level surface for the measurement. […] KRUSS software tracked the surface of the droplet with respect to the leaf surface baseline and calculated the contact angle (θC). Surface tension γLv of the droplet (largest droplet formation at syringe nozzle just before dripping from the nozzle) was measured using a KRUSS drop shape analyzer (pendant needle was used, diameter 1.8 mm). The solid-liquid adhesion energy per unit area (δWSLV) of the droplet was calculated using the following Young-Dupré equation (1): [formula]

Structures are written as SMILES.

`O.O.O.O.O.O=S(=O)([O-])[O-].[Cu+2]` [CuSO4, copper (II) sulfate pentahydrate]: the surface tension in series [1] is 57.46 mM/m. In the series with wheat leaf surface, this molecule yielded a contact angle of 125.2 °. Also, the surface adhesion energy in the series with wheat leaf surface (Young-Dupré equation) came out at 24.17 mM/m.
